Measured values published in PubChem BioAssay (NCI).
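Grown in 96-well plates, cells were treated for 48 hours with each compound at five concentrations. Insufficient inhibition: endpoint recorded as highest concentration tested. GI50 = concentration required for 50% inhibition of growth. TGI: total growth inhibition.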

How the values were obtained:
Experiment in all cases: NCI anticancer screen, dose series, 48 h
[1] = system: NCI-H23 lung
[2] = system: SK-MEL-5 melanoma
[3] = system: RXF 393 renal
[4] = system: A498 renal
[5] = system: KM20L2 colon
[6] = system: 786-0 renal
[7] = system: MALME-3M melanoma
[8] = system: CAKI-1 renal
[9] = system: HS 578T breast

| SMILES | TGI [1] | TGI [2] | TGI [3] | TGI [4] | TGI [5] | TGI [6] | TGI [7] | TGI [8] | GI50 [1] | GI50 [2] | GI50 [9] | TGI [9] | GI50 [3] | GI50 [4] | GI50 [6] | GI50 [7] | GI50 [8] |
| --- | --- | --- | --- | --- | --- | --- | --- | --- | --- | --- | --- | --- | --- | --- | --- | --- | --- |
| CCOC(=O)C(=O)Nc1ccccc1C | > 100 µM | > 100 µM | > 100 µM | > 100 µM | > 100 µM | > 100 µM | > 100 µM | > 100 µM | – | – | – | – | – | – | – | – | – |
| O=C(CCC(=O)Nc1ccc(Cl)c(Cl)c1)CC(=O)c1ccc(Br)cc1 | > 100 µM | > 100 µM | > 100 µM | > 100 µM | > 100 µM | > 100 µM | > 100 µM | > 100 µM | – | – | – | – | – | – | – | – | – |
| OCc1ccc(N2CCc3cccc(F)c3C2)cc1Cl | 40.9 µM | 35.4 µM | 27.9 µM | 0.0405 µM | – | 44.7 µM | 63.6 µM | 21.8 µM | 13.9 µM | 14.9 µM | 21.9 µM | 77.8 µM | 12.6 µM | < 0.0145 µM | 16.7 µM | 24.1 µM | 1.19 µM |
| CCNc1cc(-c2cccc(OC(F)(F)F)c2)nc2ccc(N3CCCC3)cc12 | 4.47 µM | 2.84 µM | 3.17 µM | 2.76 µM | – | 3.48 µM | 3.36 µM | 4.9 µM | 1.84 µM | 1.51 µM | 1.72 µM | 3.96 µM | 1.18 µM | 1.07 µM | 1.56 µM | 1.74 µM | 1.81 µM |
| COc1ccc(-c2ccncc2)cc1C(N)=O | > 25 µM | > 25 µM | > 25 µM | > 25 µM | – | > 25 µM | > 25 µM | > 25 µM | > 25 µM | > 25 µM | > 25 µM | > 25 µM | > 25 µM | > 22.8 µM | > 25 µM | > 25 µM | > 25 µM |
| O=C(/C=C/C12c3ccccc3C(c3ccccc31)C1C(=O)NC(=O)C12)c1ccc(Cl)cc1Cl (stereo not drawn) | 4.1 µM | 3.34 µM | 3.22 µM | 3.3 µM | – | 3.22 µM | 3.12 µM | 3.05 µM | 2.02 µM | 1.71 µM | 2.76 µM | 7.01 µM | 1.73 µM | 1.82 µM | 1.7 µM | 1.71 µM | 1.57 µM |
| C=CCn1c(C)nc2ccc(Nc3nc(Nc4ccc(F)cc4)nc4ccccc34)cc21 | 26 µM | 2.64 µM | 2.57 µM | 24.1 µM | – | 23.8 µM | 35.7 µM | 27.5 µM | 4.23 µM | 1.36 µM | 9.83 µM | 56.7 µM | 1.23 µM | 4.36 µM | 7.44 µM | 13.1 µM | 6.86 µM |
| N/N=C1\C(=O)N(C2CCCCCC2)C(=O)C1C(=O)NC1CCCCCC1 (stereo not drawn) | 52.1 µM | 43.6 µM | 69.8 µM | > 100 µM | 38.1 µM | > 100 µM | 45.3 µM | – | – | – | – | – | – | – | – | – | – |
| S=c1snc2n1CCN2 | > 100 µM | > 100 µM | > 100 µM | > 100 µM | – | > 100 µM | > 100 µM | > 100 µM | > 100 µM | 58.2 µM | > 100 µM | > 100 µM | > 100 µM | 65 µM | 91.7 µM | > 100 µM | > 100 µM |
| CC[C@H](Nc1ncnc2nc[nH]c12)c1nc2cccc(F)c2c(=O)n1-c1ccccc1 | > 100 µM | > 100 µM | 17.4 µM | 13 µM | – | > 100 µM | > 100 µM | > 100 µM | 80.8 µM | 26.1 µM | 4.12 µM | > 88.3 µM | 1.35 µM | 1.3 µM | 4.29 µM | 17.2 µM | 9.94 µM |
| Cc1nc(N)nc2c1CCC(O)S2 (stereo not drawn) | 17.2 µM | 26.3 µM | 27 µM | 93.1 µM | – | 24.5 µM | 39.4 µM | > 100 µM | 3.66 µM | 12.5 µM | 10.7 µM | > 100 µM | 5.4 µM | 17.7 µM | 10.7 µM | 11.3 µM | 33.7 µM |
| CC(C)CCC[C@@H](C)[C@H]1CC[C@H]2[C@@H]3CC[C@H]4C[C@@H](CCC=C(c5cc(Cl)c(O)c(C(=O)O)c5)c5cc(Cl)c(O)c(C(=O)O)c5)CC[C@]4(C)[C@H]3CC[C@]12C | > 100 µM | > 100 µM | > 100 µM | > 100 µM | – | > 100 µM | > 100 µM | > 100 µM | – | – | – | > 100 µM | – | – | – | – | – |
| Cc1ncc(C(=O)Nc2ccc(CN3CCN(C)CC3)c(C(F)(F)F)c2)cc1C#Cc1cnc2cccnn12 | 1.01 µM | 1.26 µM | 1.14 µM | 1.47 µM | – | 3.16 µM | 0.355 µM | 2.82 µM | 0.221 µM | 0.595 µM | 0.625 µM | 3.3 µM | 0.438 µM | 0.703 µM | 1.05 µM | 0.0895 µM | 0.365 µM |
| O=S(=O)(NC1=NCCN1C(=S)SN1CCn2c1nsc2=S)c1cccc2ccccc12 | 80.9 µM | 54.4 µM | 67.2 µM | 78 µM | – | 72.6 µM | 57.4 µM | 69.7 µM | 20.9 µM | 19.1 µM | 25.5 µM | > 100 µM | 10.5 µM | 29.5 µM | 23.9 µM | 12.3 µM | 22.8 µM |
| O=S(=O)(NCCNc1nccc(-c2c(-c3ccc(F)c(O)c3)nc3sccn23)n1)c1ccc(F)cc1 | 22.4 µM | 2.98 µM | 5.46 µM | 18.2 µM | – | > 100 µM | 1.37 µM | 31.6 µM | 4.07 µM | 1.52 µM | 2.94 µM | 8.81 µM | 2.17 µM | 5.72 µM | 3.21 µM | 0.232 µM | 4.02 µM |
| CC(=O)Oc1ccc(C23c4ccccc4C2(OC(C)=O)c2cc(OC(C)=O)ccc23)cc1 (stereo not drawn) | 28.5 µM | 20.3 µM | 12.3 µM | > 100 µM | – | 20.5 µM | 27.3 µM | 17.2 µM | 10.2 µM | 6.19 µM | 2.93 µM | > 100 µM | 3.38 µM | 34.8 µM | 6.56 µM | 9.61 µM | 4.08 µM |
